Data as given in patent US12291518B2, “Thyroid hormone receptor agonists and use thereof” (Eccogene Inc., priority 2020, dated 2025).

What was measured:
THR beta-LBD = biological target: T1, THR beta-LBD (Homo sapiens, UniProt P10828); assay: THR-β Coactivator Peptide Recruitment Assay (LanthaScreen TR-FRET); type: biochemical; conditions: TR-FRET coactivator recruitment, THR beta-LBD 0.5 nM; for EC50: read-out: THRβ EC50
T1 construct: THR beta-LBD (the final concentration is 0.5 nM) was added to the 384-well assay plate; purchased Invitrogen PV4686
T1 sequence (P10828 217-461 limits assumed): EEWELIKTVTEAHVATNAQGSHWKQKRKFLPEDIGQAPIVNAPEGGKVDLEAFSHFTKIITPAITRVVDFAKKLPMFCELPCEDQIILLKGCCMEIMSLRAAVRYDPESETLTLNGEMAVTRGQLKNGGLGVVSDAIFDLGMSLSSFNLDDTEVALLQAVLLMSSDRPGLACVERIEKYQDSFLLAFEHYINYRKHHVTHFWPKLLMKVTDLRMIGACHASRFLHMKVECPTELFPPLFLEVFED
Experimental: (§1) A time-resolved FRET (TR-FRET) assay was used to test representative compounds of the application.
(§2) THR-β Coactivator Peptide Recruitment Assay were conducted by using Invitrogen's LanthaScreen™ TR-FRET Thyroid Receptor beta Assay Kit (Catalog no. PV4686). Binding of an agonist to the nuclear receptor causes a subsequent binding of a coactivator peptide, resulting in fluorescence energy transfer from the labelled nuclear receptor to the proximal coactivator peptide, which reflects the binding affinity of the agonist and the nuclear receptor. The assay was conducted by following the manufacturer's instructions. Briefly, THR beta-LBD (the final concentration is 0.5 nM) was added to the 384-well assay plate containing test compounds, followed by addition of Fluorescein-SRC2-2 coactivator peptide and terbium (Tb)-labeled anti-GST antibody. The final concentration of THR beta-LBD, Fluorescein-SRC2-2 coactivator peptide and terbium (Tb)-labeled anti-GST antibody is 0.5 nM, 0.1 nM and 2 nM, respectively. After a gentle mix and incubation at room temperature for 2 h, the signal was read on the EnVision Multilabel Plate Reader at wavelengths of 520 nm and 495 nm. TR-FRET ratio was calculated by dividing the emission signal at 520 nm and the emission signal at 495 nm, and then was plotted against a sigmoidal dose response curve (four parameters, GraphPad™ Prism 8) to determine the EC50 value.

THR alpha-LBD = biological target: T2, THR alpha-LBD (Homo sapiens, UniProt P10827); assay: THR-α Coactivator Peptide Recruitment Assay (LanthaScreen TR-FRET); type: biochemical; conditions: TR-FRET coactivator recruitment, THR alpha-LBD 0.25 nM; for EC50: read-out: THRα EC50
T2 construct: except that THR alpha-LBD of a final concentration 0.25 nM was used; purchased Invitrogen PV4687
Experimental: as §1, §2
THR-α Coactivator Peptide Recruitment Assay were conducted by using Invitrogen's LanthaScreen™ TR-FRET Thyroid Receptor alpha Assay Kit (Catalog no. PV4687), following the same method described above except that THR alpha-LBD of a final concentration 0.25 nM was used.

T2 sequence (P10827 163-410 isoform P10827-2 limits assumed, other chains not shown): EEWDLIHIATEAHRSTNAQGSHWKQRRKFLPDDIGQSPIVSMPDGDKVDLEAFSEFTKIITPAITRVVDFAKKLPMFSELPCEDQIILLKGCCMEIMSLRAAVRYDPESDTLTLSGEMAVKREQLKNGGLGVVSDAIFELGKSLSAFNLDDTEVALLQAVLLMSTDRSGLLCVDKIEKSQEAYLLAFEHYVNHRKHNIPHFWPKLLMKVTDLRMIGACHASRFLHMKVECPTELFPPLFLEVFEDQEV

THRβ Emax (THR beta-LBD)	EC50 (THR beta-LBD) [nM]	THRα Emax (THR alpha-LBD)	EC50 (THR alpha-LBD) [nM]	SMILES
A (90~110)	20 to 100	B (40~85)	200 to 1000	CC(C)(C)NC(=O)c1cc(Oc2c(Cl)cc(-n3nc(C(F)(F)F)c(=O)[nH]c3=O)cc2Cl)ccc1O [Compound 4, N-(tert-butyl)-5-(2,6-dichloro-4-(3,5-dioxo-6-(trifluoromethyl)-4,5-dihydro-1,2,4-triazin-2(3H)-yl)phenoxy)-2-hydroxybenzamide]
A (90~110)	20 to 100	B (40~85)	> 1000	O=C(NC1CCC1)c1cc(Oc2c(Cl)cc(-n3nc(C(F)(F)F)c(=O)[nH]c3=O)cc2Cl)ccc1O [Compound 5, N-cyclobutyl-5-(2,6-dichloro-4-(3,5-dioxo-6-(trifluoromethyl)-4,5-dihydro-1,2,4-triazin-2(3H)-yl)phenoxy)-2-hydroxybenzamide]
B (75~90)	20 to 100	B (40~85)	> 1000	O=C(NC12CC3(F)CC(F)(CC(F)(C3)C1)C2)c1cc(Oc2c(Cl)cc(-n3nc(C(F)F)c(=O)[nH]c3=O)cc2Cl)ccc1O [Compound 6, 5-(2,6-dichloro-4-(6-(difluoromethyl)-3,5-dioxo-4,5-dihydro-1,2,4-triazin-2 (3H)-yl)phenoxy)-2-hydroxy-N-(3,5,7-trifluoroadamantan-1-yl) benzamide]
A (90~110)	> 100	B (40~85)	200 to 1000	O=c1[nH]c(=O)n(-c2cc(Cl)c(S(=O)(=O)c3ccc(O)c(C4CCC4)c3)c(Cl)c2)nc1C(F)(F)F [Compound 9, 2-[3,5-dichloro-4-(3-cyclobutyl-4-hydroxy-phenyl)sulfonyl-phenyl]-6-(trifluoromethyl)-1,2,4-triazine-3,5-dione]
B (75~90)	> 100	C (<40)	> 1000	O=C(NC1CCC1)c1cc(Oc2c(Cl)cc(-n3nc(C(F)(F)F)c(=O)[nH]c3=O)cc2Cl)c(F)cc1O [Compound 10, N-cyclobutyl-5-[2,6-dichloro-4-[3,5-dioxo-6-(trifluoromethyl)-1,2,4-triazin-2-yl]phenoxy]-4-fluoro-2-hydroxy-benzamide]
A (90~110)	> 100	B (40~85)	> 1000	O=C(NC1CCC1)c1cc(Oc2c(Cl)cc(-n3nc(C(F)F)c(=O)[nH]c3=O)cc2Cl)c(F)cc1O [Compound 11, N-cyclobutyl-5-[2,6-dichloro-4-[6-(difluoromethyl)-3,5-dioxo-1,2,4-triazin-2-yl]phenoxy]-4-fluoro-2-hydroxy-benzamide]
A (90~110)	< 2	A (85~110)	< 2	O=c1[nH]c(=O)n(-c2cc(Cl)c(Oc3ccc(O)c(S(=O)(=O)NC4CCC4)c3)c(Cl)c2)nc1C(F)F [Compound 12, N-cyclobutyl-5-[2,6-dichloro-4-[6-(difluoromethyl)-3,5-dioxo-1,2,4-triazin-2-yl]phenoxy]-2-hydroxy-benzenesulfonamide]
A (90~110)	< 2	A (85~110)	< 2	CNS(=O)(=O)c1cc(Oc2c(Cl)cc(-n3nc(C(F)F)c(=O)[nH]c3=O)cc2Cl)ccc1O [Compound 13, 5-(2,6-dichloro-4-(6-(difluoromethyl)-3,5-dioxo-4,5-dihydro-1,2,4-triazin-2(3H)-yl)phenoxy)-2-hydroxy-N-methylbenzenesulfonamide]
A (90~110)	< 2	A (85~110)	< 2	O=c1[nH]c(=O)n(-c2cc(Cl)c(Oc3ccc(O)c(S(=O)(=O)NC4CC4)c3)c(Cl)c2)nc1C(F)F [Compound 14, N-cyclopropyl-5-(2,6-dichloro-4-(6-(difluoromethyl)-3,5-dioxo-4,5-dihydro-1,2,4-triazin-2(3H)-yl)phenoxy)-2-hydroxybenzenesulfonamide]
B (75~90)	< 2	B (40~85)	< 2	O=c1[nH]c(=O)n(-c2cc(Cl)c(Oc3ccc(O)c([S@TB3](=O)(=O)N4CCOCC4)c3)c(Cl)c2)nc1C(F)F [Compound 15, 2-(3,5-dichloro-4-(4-hydroxy-3-(morpholinosulfonyl)phenoxy)phenyl)-6-(difluoromethyl)-1,2,4-triazine-3,5(2H,4H)-dione]
B (75~90)	< 2	A (85~110)	2 to 200	O=c1[nH]c(=O)n(-c2cc(Cl)c(Oc3ccc(O)c(S(=O)(=O)N4CCC(O)CC4)c3)c(Cl)c2)nc1C(F)F [Compound 16, 2-(3,5-dichloro-4-(4-hydroxy-3-((4-hydroxypiperidin-1-yl)sulfonyl)phenoxy)phenyl)-6-(difluoromethyl)-1,2,4-triazine-3,5(2H,4H)-dione]
A (90~110)	< 2	A (85~110)	2 to 200	N#CC1(NS(=O)(=O)c2cc(Oc3c(Cl)cc(-n4nc(C(F)F)c(=O)[nH]c4=O)cc3Cl)ccc2O)CC1 [Compound 17, N-(1-cyanocyclopropyl)-5-(2,6-dichloro-4-(6-(difluoromethyl)-3,5-dioxo-4,5-dihydro-1,2,4-triazin-2(3H)-yl)phenoxy)-2-hydroxybenzenesulfonamide]
B (75~90)	2 to 20	B (40~85)	200 to 1000	O=c1[nH]c(=O)n(-c2cc(Cl)c(Oc3ccc(O)c(S(=O)(=O)N[C@H]4C[C@H](C(=O)NC5CC5)C4)c3)c(Cl)c2)nc1C(F)F [Compound 18]
A (90~110)	< 2	A (85~110)	2 to 200	O=c1[nH]c(=O)n(-c2cc(Cl)c(Oc3ccc(O)c(S(=O)(=O)NC4CC4)c3)c(Cl)c2)nc1C(F)(F)F [Compound 19, N-cyclopropyl-5-[2,6-dichloro-4-[3,5-dioxo-6-(trifluoromethyl)-1,2,4-triazin-2-yl]phenoxy]-2-hydroxy-benzenesulfonamide]
A (90~110)	2 to 20	A (85~110)	2 to 200	CNS(=O)(=O)c1cc(Oc2c(Cl)cc(-n3nc(C(F)(F)F)c(=O)[nH]c3=O)cc2Cl)ccc1O [Compound 20, 5-(2,6-dichloro-4-(3,5-dioxo-6-(trifluoromethyl)-4,5-dihydro-1,2,4-triazin-2(3H)-yl)phenoxy)-2-hydroxy-N-methylbenzenesulfonamide]
A (90~110)	2 to 20	B (40~85)	2 to 200	O=c1[nH]c(=O)n(-c2cc(Cl)c(Oc3ccc(O)c(S(=O)(=O)N4CCC(F)(F)CC4)c3)c(Cl)c2)nc1C(F)(F)F [Compound 21, 2-(3,5-dichloro-4-(3-((4,4-difluoropiperidin-1-yl)sulfonyl)-4-hydroxyphenoxy)phenyl)-6-(trifluoromethyl)-1,2,4-triazine-3,5(2H,4H)-dione]
B (75~90)	2 to 20	B (40~85)	200 to 1000	CNC(=O)C1(NS(=O)(=O)c2cc(Oc3c(Cl)cc(-n4nc(C(F)F)c(=O)[nH]c4=O)cc3Cl)ccc2O)CC1 [Compound 22, 1-[[5-[2,6-dichloro-4-[6-(difluoromethyl)-3,5-dioxo-1,2,4-triazin-2-yl]phenoxy]-2-hydroxy-phenyl]sulfonylamino]-N-methyl-cyclopropane carboxamide]
A (90~110)	< 2	A (85~110)	2 to 200	NC(=O)C1(NS(=O)(=O)c2cc(Oc3c(Cl)cc(-n4nc(C(F)F)c(=O)[nH]c4=O)cc3Cl)ccc2O)CC1 [Compound 24, 1-[[5-[2,6-dichloro-4-[6-(difluoromethyl)-3,5-dioxo-1,2,4-triazin-2-yl]phenoxy]-2-hydroxy-phenyl]sulfonylamino]cyclopropanecarboxamide]
B (75~90)	20 to 100	C (<40)	> 1000	CNC(=O)C1(N[S@SP3](=O)(=O)c2cc(Oc3c(Cl)cc(-n4nc(C(F)(F)F)c(=O)[nH]c4=O)cc3Cl)ccc2O)CC1 [Compound 25, 1-((5-(2,6-dichloro-4-(3,5-dioxo-6-(trifluoromethyl)-4,5-dihydro-1,2,4-triazin-2(3H)-yl)phenoxy)-2-hydroxyphenyl)sulfonamido)-N-methylcyclopropane-1-carboxamide]
